These results are taken from US9393221B2, “Methods and compounds for reducing intracellular lipid storage” (THE GENERAL HOSPITAL CORPORATION, priority 2011, dated 2016).

Counter-ions that a name gives are not always drawn. Bridge positions count the residues as written; N and C are the ends. Square brackets hold non-standard residues; d marks the D form. Peptide text beside a SMILES is read from it. * marks the point of attachment. Ileψ(thiazoline)Cys = CC[C@H](C)[C@H](N)C1=N[C@H](C(=O)*)CS1; dOrn = NCCC[C@@H](N)C(=O)O

In the first test the test system is ATGL-KO iPSCs. The test can be described thus: High throughput iPSC chemical screening, Oil Red O (ORO) lipid accumulation. For Z-score: test concentration or dose not given here.
Settings: not given
The test is classed as cell-based, mouse.
`CN1CCc2cccc3c2[C@H]1Cc1ccc(O)c(O)c1-3.CN1CCc2cccc3c2[C@H]1Cc1ccc(O)c(O)c1-3.Cl.Cl.O` registered a Z-score of −0.2622.

Staying with this test, now noted: glycolytic switch compounds.
For `O=c1c2ccccc2[se]n1-c1ccccc1` [Ebselen], the “Rank in normalized ORO score from screen” value was 52.

Take `Fc1ccc(C(OCCN2CCN(CCCc3ccccc3)CC2)c2ccc(F)cc2)cc1` [GBR 12909 dihydrochloride]: the “Rank in normalized ORO score from screen” value is 208.

Still in this test, the particulars now being: normalized ORO level vs DMSO-treated cells; compound present during 7 days differentiation, 96-well; negative = decrease in lipid accumulation.
In turn, `C/C=C(/C(=C/C)c1ccc(O)cc1)c1ccc(O)cc1` [Dienestrol] displayed a Z-score of 0.1268. Take `Nc1nc2ncc(CNc3ccc(C(=O)N[C@@H](CCC(=O)O)C(=O)O)cc3)nc2c(=O)[nH]1` [Folic acid]: the Z-score is recorded as 1.253. For `CN1Cc2c(N)cccc2C(c2ccccc2)C1` (stereo not drawn) [Nomifensine maleate], the Z-score is reported as −1.3149. `c1cncc([C@@H]2CCCCN2)c1` [Anabasine] came in with a Z-score of −0.7781. As to `CC(=O)/N=c1/sc(S(N)(=O)=O)nn1C` [Methazolamide], the Z-score was 0.06841. Consider `COc1cc2c(cc1O)[C@@H]1Cc3ccc(OC)c(O)c3CN1CC2` [Scoulerine], for which the Z-score was determined as 19.9884. `CC(=O)O[C@H]1C(=O)[C@@]2(C)[C@H]([C@H](OC(=O)c3ccccc3)[C@]3(O)C[C@H](OC(=O)[C@H](O)[C@@H](NC(=O)c4ccccc4)c4ccccc4)C(C)=C1C3(C)C)[C@]1(OC(C)=O)CO[C@@H]1C[C@@H]2O` [Paclitaxel]: the Z-score turned out to be 48.9183. `CC(=O)OCC(=O)[C@@]1(O)[C@H](C)C[C@H]2[C@@H]3CCC4=CC(=O)C=C[C@]4(C)[C@@]3(F)[C@@H](O)C[C@@]21C` [Dexamethasone acetate]: the Z-score is listed as −1.3076.

Molecule `CC[N+](C)(C)c1cccc(O)c1` [Edrophonium chloride] gave a Z-score of 0.4533. The same measure, in the same setting: then `CC/C(=C(/CC)c1ccc(O)cc1)c1ccc(O)cc1` [Diethylstilbestrol], with −0.977. For the molecule `C[C@@]12C(=O)OC(=O)[C@]1(C)[C@H]1CC[C@@H]2O1` [Cantharidin], the Z-score amounted to 18.9862. The molecule `CN1[C@@H](C[C@@H](O)c2ccccc2)CCC[C@H]1C[C@H](O)c1ccccc1.Cl` [Lobelanidine hydrochloride] registered a Z-score of −0.6306.

Molecule `CCn1cc(C(=O)O)c(=O)c2cnc(N3CCCC3)nc21` [Piromidic acid] had a Z-score of 0.2604. The same measure, in the same setting: to `Cc1cccc(C)c1OCC(C)N` (stereo not drawn) [Mexiletine hydrochloride] belongs 1.054; to `Cc1c(Nc2ncccc2C(=O)O)cccc1C(F)(F)F` [Flunixin meglumine], −1.0122; to `Nc1ccc(S(=O)(=O)Nc2ccc(Cl)nn2)cc1` [Sulfachloropyridazine], 1.134. The same measure, in the same setting: then `Cc1ccccc1N1C(=O)c2cc(S(N)(=O)=O)c(Cl)cc2NC1C` (stereo not drawn) [Metolazone], with −0.7452; and `N=C(N)N/N=C/c1c(Cl)cccc1Cl` [Guanabenz acetate], with −0.3551. Still for that read-out and setting: to `C#CCN(C)Cc1ccccc1` [Pargyline hydrochloride] belongs −0.735. Regarding `O=C(O)c1cccnc1Nc1cccc(C(F)(F)F)c1` [Niflumic acid], the Z-score is −0.6436. On the same count and under the same terms, then `CNC(=C[N+](=O)[O-])NCCSCc1csc(CN(C)C)n1` [Nizatidine], with −0.1369. Still for that read-out and setting: to `CN(C)CCC=C1c2ccccc2COc2ccccc21` [Doxepin hydrochloride] belongs −1.0091; to `NC[C@@H]1O[C@H](O[C@H]2[C@@H](O)[C@H](O[C@@H]3[C@@H](O)[C@H](N)C[C@H](N)[C@H]3O[C@H]3O[C@H](CO)[C@@H](O)[C@H](O)[C@H]3N)O[C@@H]2CO)[C@H](N)[C@@H](O)[C@@H]1O` [Paromomycin sulfate], −0.0138. The molecule `O=c1c2ccccc2[se]n1-c1ccccc1` [Ebselen] registered a Z-score of −1.5273. As for `COc1ccc2c(OC)c3ccoc3nc2c1OC` [Skimmianine], the Z-score was −1.2252. Molecule `COc1cc(C(=O)OC2CC3CCC(C2)N3C)ccc1O` (stereo not drawn) [Fillalbin] displayed a Z-score of 0.7621. Take `Nc1c(O)cccc1C(=O)CC(N)C(=O)O` (racemic) [Kynurenine, 3-hydroxy (R,S)]: the Z-score was 0.1567. `CCC(C)(C)C(=O)O[C@H]1C[C@@H](C)C=C2C=C[C@H](C)[C@H](CC[C@@H]3C[C@@H](O)CC(=O)O3)[C@H]21` [Simvastatin]: the Z-score is given as 15.173. Molecule `Cc1nnc(SCC2=C(C(=O)O)N3C(=O)[C@@H](NC(=O)Cn4cnnn4)[C@H]3SC2)s1` [Cefazolin sodium salt] gave a Z-score of −0.8698. `CC(C)n1c(/C=C/C(O)CC(O)CC(=O)O)c(-c2ccc(F)cc2)c2ccccc21` (stereo not drawn) [Fluvastatin sodium salt] returned a Z-score of 9.993.

`O=C(O)[C@]1(O)C[C@@H](O)[C@@H](O)[C@H](O)C1` [Quinic acid] displayed a Z-score of 1.0976.

For the molecule `Cc1ncc([N+](=O)[O-])n1CC(O)CCl` (stereo not drawn) [Ornidazole], the Z-score came to 0.7824.

In the case of `NS(=O)(=O)c1cc2c(cc1Cl)NCNS2(=O)=O` [Hydrochlorothiazide], the Z-score is on record as 1.18.

Take `C[C@]12C=CC(=O)C=C1CC[C@@H]1[C@@H]2[C@@H](O)C[C@@]2(C)[C@H]1CC[C@]2(O)C(=O)CO` [Prednisolone]: the Z-score is −0.8986. For the molecule `CO[C@@]1(NC(=O)C2SC(=C(C(N)=O)C(=O)O)S2)C(=O)N2C(C(=O)O)=C(CSc3nnnn3C)CS[C@@H]21` (stereo partly drawn) [Cefotetan], the Z-score stood at 2.584.

`O=C1CCC(N2C(=O)c3ccccc3C2=O)C(=O)N1` (stereo not drawn) [Thalidomide]: the Z-score was −1.026. As to `CC(C)(Sc1cc(C(C)(C)C)c(O)c(C(C)(C)C)c1)Sc1cc(C(C)(C)C)c(O)c(C(C)(C)C)c1` [Probucol], the Z-score was found to be 1.626. The same measure, in the same setting: to `CCN(CC)CCCC(C)Nc1c2ccc(Cl)cc2nc2ccc(OC)cc12` (stereo not drawn) [Quinacrine dihydrochloride dihydrate] belongs 0.141.

`C=C1[C@@H]2CC[C@H]3[C@]4(C)C[C@H](O[C@@H]5O[C@H](CO)[C@@H](OS(=O)(=O)O)[C@H](OS(=O)(=O)O)[C@H]5OC(=O)CC(C)C)C[C@@H](C(=O)O)[C@H]4CC[C@]3(C2)[C@@H]1O` [Atractyloside potassium salt] gave a Z-score of −0.3937.

For the molecule `NCCc1c[nH]c2ccc(O)cc12` [Serotonin hydrochloride], the Z-score is −0.8664. The molecule Helveticoside had a Z-score of −0.1112. Molecule `c1cnc(N2CCN(Cc3ccc4c(c3)OCO4)CC2)nc1` [Piribedil hydrochloride] returned a Z-score of −1.3522. Consider `CCCCOc1cc(C(=O)NCCN(CC)CC)c2ccccc2n1` [Dibucaine], for which the Z-score turned out to be 0.2274. The molecule `NS(=O)(=O)c1cc(C(=O)O)cc(N2CCCC2)c1Oc1ccccc1` [Piretanide] yielded a Z-score of 0.2521. Take `COc1cccc2c1C(=O)c1c(O)c3c(c(O)c1C2=O)C[C@@](O)(C(C)=O)C[C@@H]3O[C@H]1C[C@H](N)[C@H](O)[C@H](C)O1` [Daunorubicin hydrochloride]: the Z-score is given as 28.7571. The molecule `NC(=O)c1cnccn1` [Pyrazinamide] gave a Z-score of −1.0312.

`Clc1cnccn1` [2-Chloropyrazine]: the Z-score is given as −0.5863. `CN(Cc1cnc2nc(N)nc(N)c2n1)c1ccc(C(=O)N[C@@H](CCC(=O)O)C(=O)O)cc1` [Methotrexate] gave a Z-score of 7.697.

Molecule `COc1cccc2c1C(=O)c1c(O)c3c(c(O)c1C2=O)C[C@@](O)(C(=O)CO)C[C@@H]3O[C@H]1C[C@H](N)[C@H](O)[C@H](C)O1` [Doxorubicin hydrochloride] came in with a Z-score of 32.6438. For the molecule `C[C@H](CCC(=O)NCC(=O)O)[C@H]1CC[C@H]2[C@@H]3[C@H](O)C[C@@H]4C[C@H](O)CC[C@]4(C)[C@H]3C[C@H](O)[C@]12C` [Glycocholic acid], the Z-score is given as −0.6342. For the molecule `COc1ccc(CC2c3cc(OC)c(OC)cc3CC[N+]2(C)CCC(=O)OCCCCCOC(=O)CC[N+]2(C)CCc3cc(OC)c(OC)cc3C2Cc2ccc(OC)c(OC)c2)cc1OC` (stereo not drawn) [Atracurium besylate], the Z-score was determined as 1.182. `O=C(O)Cc1ccccc1Nc1c(Cl)cccc1Cl` [Diclofenac sodium] displayed a Z-score of −1.137. Still for that read-out and setting: to `CC[C@H](C)[C@H](N)C1=N[C@H](C(=O)N[C@@H](CC(C)C)C(=O)N[C@H](CCC(=O)O)C(=O)N[C@H](C(=O)N[C@H]2CCCCNC(=O)[C@H](CC(N)=O)NC(=O)[C@@H](CC(=O)O)NC(=O)[C@H](Cc3cnc[nH]3)NC(=O)[C@@H](Cc3ccccc3)NC(=O)[C@H]([C@@H](C)CC)NC(=O)[C@@H](CCCN)NC2=O)[C@@H](C)CC)CS1` [Bacitracin] ({Ileψ(thiazoline)Cys}-L[dE]IK[dOrn]I[dF]H[dD]N; lactam 4-C) belongs −1.0707; to `Fc1ccc(C(OCCN2CCN(CCCc3ccccc3)CC2)c2ccc(F)cc2)cc1` [GBR 12909 dihydrochloride], −1.0102. Take `O=C(O)c1ccccc1C(=O)Nc1ccc(S(=O)(=O)Nc2nccs2)cc1` [Phthalylsulfathiazole]: the Z-score is reported as −1.0074. For `CC(C(=O)O)c1ccc(C(=O)c2ccccc2)s1` (stereo not drawn) [Tiaprofenic acid], the Z-score was −0.6271. Same read-out and setting: to `CCN1CCCC1CNC(=O)c1cc(S(N)(=O)=O)ccc1OC` (stereo not drawn) [Sulpiride] belongs −0.2187. The molecule `CCn1cc(C(=O)O)c(=O)c2cc(F)c(N3CCNCC3)cc21` [Norfloxacin] showed a Z-score of 0.6666. Beta-Escin yielded a Z-score of −1.7261. On to `CC(C)/N=c1\cc2n(-c3ccc(Cl)cc3)c3ccccc3nc-2cc1Nc1ccc(Cl)cc1` [Clofazimine], for which the Z-score is on record as −0.5584. As to `Cc1ccc(C(=O)c2ccc(CC(=O)O)n2C)cc1` [Tolmetin sodium salt dihydrate], the Z-score is −1.0425. The molecule `CN(C)CCn1nnnc1SCC1=C(C(=O)O)N2C(=O)[C@@H](NC(=O)Cc3csc(N)n3)[C@H]2SC1` [Cefotiam hydrochloride] had a Z-score of −0.8453.

`CO[C@H]1/C=C/O[C@@]2(C)Oc3c(C)c(O)c4c(c3C2=O)C2=NC3(CCN(CC(C)C)CC3)NC2=C(NC(=O)/C(C)=C\C=C\[C@H](C)[C@H](O)[C@@H](C)[C@@H](O)[C@@H](C)[C@H](OC(C)=O)[C@@H]1C)C4=O` [Rifabutin]: the Z-score is 1.521.
